{
  "source": "patent US20140356383A1",
  "about": "“ADMINISTRATION OF AN ANTI-GCC ANTIBODY-DRUG CONJUGATE AND A DNA DAMAGING AGENT IN THE TREATMENT OF CANCER” (priority 2013, published 2014)",
  "key": {"[1]": {"test_system": "293 GCC#2 tumor xenograft", "assay": "5F9 vcMMAE single agent efficacy in 293 GCC#2 xenograft (Example 5)", "format": "in vivo, SCID mice", "conditions": "dose 1.875-7.5 mg/kg, QW, T/C=volume of tumor/control"}, "PHTX-09c s.c. xenograft": {"test_system": "PHTX-09c s.c. xenograft", "assay": "5F9 vcMMAE and CPT-11 in PHTX-09C s.c. xenografts (Study CPGC-11-EF07)", "conditions": "for Days to 1000 mm^3 / Mean tumor volume ± S.E.M (mm3) / T/C / TGI: PHTX-09c", "protocol": "(§3) The endpoints for each treatment group was either a) tumor volume reaches 10% body weight; or b) body weight loss of >20%. The projected tumor volume at the study initiation date was 200 mm^3.\nNot greater than one day prior to dosing, all animals were weighed to the nearest gram and grouped. Dosing solutions were vortexed prior to each administration to ensure correct delivery of compound. Animals received approximately 0.1 ml doses administered I.V. using a 1 cc syringe, 25-30 gauge, ½-¾ inch in length. Animals were dosed based on an average body weight of 20 grams.\n(§4) Tumor volume measurements were obtained twice per week using Vernier calipers (0.01 mm). Tumor volume was calculated using the formula:\n(§5) Efficacy was evaluated in terms of % tumor growth inhibition (TGI) and tumor growth delay (TGD). TGI was assessed on an arbitrary day (when the maximum tumor volume (MTV of the control treatment group reaches the maximum allowable tumor volume), using the following formula:\n(§6) TGD was assessed by calculating T−C, where T=mean time (in days) for treatment group tumors to reach a predetermined size, and where C=mean time (in days) for the control group tumors to reach a predetermined size (e.g., 1,000 mm^3).\n(§7) To compare pairs of treatment groups, the following mixed-effects linear regression model was fit to the data using the maximum likelihood method:\nThe −2 log likelihood of the full model was compared to one without any treatment terms (reduced model) and the difference in the values was tested using a Chi-squared test. The degrees of freedom of the test were calculated as the difference between the degrees of freedom of the full model and that of the reduced model. The predicted differences in the log tumor values (Yijk−Yi0k, which can be interpreted as log10 (fold change from day 0)) were taken from the above models to calculate mean AUC values for each treatment group. A dAUC value was then calculated as:\n(§8) For synergy analyses, the observed differences in the log tumor values were used to calculate AUC values for each animal. […] The AUC for the control, or vehicle, group was calculated using the predicted values from the pairwise models described above. To address the question of whether the effects of the combination treatments were synergistic, additive, or sub-additive relative to the individual treatments, the following statistics were calculated:\nwhere Ak and Bk are the k^th animal in the individual treatment groups and ABk is the k^th animal in combination treatment group. AUCctl is the model-predicted AUC for the control group and was treated as a constant with no variability. […] The standard error of the synergy score was calculated as the square root of the sum of squared standard errors across groups A, B, and AB. The degrees of freedom were estimated using the Welch-Satterthwaite equation. P values were calculated by dividing the synergy score by its standard error and tested against a t-distribution (two-tailed) with the above-calculated degrees of freedom."}, "PHTX-11c s.c. xenograft": {"test_system": "PHTX-11c s.c. xenograft", "assay": "MLN0264 and CPT-11 in PHTX-11c s.c. xenografts (Study CPGC-12-EF01)", "quoted_text": "The objective of this study was to explore the combination activity in a model having moderate level of GCC antigen density yet resistance to the immunoconjugate alone.\nas §3\nNot greater than one day prior to dosing, all animals were weighed to the nearest gram and grouped. Dosing solutions were vortexed prior to each administration to ensure correct delivery of compound. Animals received approximately 0.1 ml doses administered I.V. using a 1 cc syringe, 25-30 gauge, ½-¾ inch in length.\nTumor volume measurements (0.01 mm) were obtained twice per week using Vernier calipers (0.01 mm). Tumor volume was calculated using the formula:\nas §5, §6, §7\n(§9) The predicted differences in the log tumor values (Yijk−Yi0k, which can be interpreted as log10 (fold change from day 0)) were taken from the above models to calculate mean AUC values for each treatment group. A dAUC value was then calculated as:\nas §8\nwhere Ak and Bk are the k^th animal in the individual treatment groups and ABk is the k^th animal in combination treatment group. AUCctl is the model-predicted AUC for the control group and was treated as a constant with no variability. The standard error of the synergy score was calculated as the square root of the sum of squared standard errors across groups A, B, and AB. The degrees of freedom were estimated using the Welch-Satterthwaite equation. P values were calculated by dividing the synergy score by its standard error and tested against a t-distribution (two-tailed) with the above-calculated degrees of freedom.\nThe effect was classified into four different categories. It was considered synergistic if the synergy score was less than 0 and additive if the synergy score wasn't statistically different from 0. […] Interval analysis, if requested, involved a specified treatment group and time interval compared with another treatment group and time interval. For a given group, time interval, and animal, the tumor growth rate per day was estimated by"}, "[2]": {"test_system": "PHTX-249 Pa s.c. xenograft", "assay": "5F9 vcMMAE and gemcitabine in PHTX-249 Pa s.c. xenografts (Study CPGC-13-EF05)", "format": "in vivo, CB-17 SCID mice", "conditions": "group A: MLN0264 7.5 mg/kg QW; reference vehicle", "description": "(§1) Day D0 was the first day of treatment.\n(§2) Tumor volume was calculated using the formula: […]\nA negative dAUC is interpreted as an increase in AUC relative to the reference. It is important to evaluate not only the P value, but also the dAUC. Comparisons with significant P values, but small dAUC values, may not be of interest."}, "[3]": {"test_system": "PHTX-17c primary human mCRC tumor xenograft", "assay": "5F9 vcMMAE single agent efficacy in PHTX-17c", "format": "in vivo, SCID mice"}, "PHTX-21c s.c. xenograft [4]": {"test_system": "PHTX-21c s.c. xenograft", "assay": "MLN0264 and CPT-11 in PHTX-21C s.c. xenografts (Study CPGC-11-EF04)", "protocol": "as §3\nNot greater than one day prior to dosing, all animals were weighed to the nearest gram and grouped. Dosing solutions were vortexed prior to each administration to ensure correct delivery of compound. Animals received approximately 0.1 ml doses administered I.V. using a 1 cc syringe, 27-30 gauge, ½-¾ inch in length.\nas §4, §5\nTGD was assessed by calculating T−C, where T=mean time (in days) for treatment group tumors to reach a predetermined size (e.g., 1,000 mm^3), and where C=mean time (in days) for the control group tumors to reach a predetermined size.\nas §7, §9\nFor synergy analyses, the observed differences in the log tumor values were used to calculate AUC values for each animal. […] The AUC for the control, or vehicle, group was calculated using the predicted values from the pairwise models described above."}, "[5]": {"test_system": "PHTX-215 Pa s.c. xenograft", "assay": "5F9 vcMMAE and gemcitabine in PHTX-215 Pa s.c. xenografts (Study CPGC-13-EF10)", "format": "in vivo, CB-17 SCID mice", "conditions": "PHTX-215 Pa s.c. xenograft, CB-17 SCID mice, reference vehicle", "description": "as §1, §2\nTable 77A the annotation table for group symbols. […] A negative dAUC is interpreted as an increase in AUC relative to the reference. It is important to evaluate not only the P value, but also the dAUC. Comparisons with significant P values, but small dAUC values, may not be of interest."}, "293 GCC#2 tumors": {"test_system": "293 GCC#2 tumors", "assay": "Efficacy study with auristatin conjugates in 293 GCC#2 tumors, q7d×4", "format": "in vivo, SCID mice", "conditions": "for T/C: treatment/control", "description": "293 GCC#2 tumor-bearing SCID mice were treated with 5F9 conjugates with vc MMAE, vcMMAF or mcMMAF at three doses in comparison with 209 conjugates of these toxins or with free toxins or vehicle control. Doses were administered iv on a q7d×4 schedule. Tumors were harvested at days 3, 7, 10, 13 and 17. […] Table 18 provides a summary of the results (TGI=tumor growth inhibition, T/C=treatment/control, TGD=tumor growth delay, CR/PR=complete response/partial response; p value=measure to judge statistical significance, NS=not significant)."}, "[6]": {"test_system": "PHTX-11c primary human mCRC tumor xenograft", "assay": "5F9 vcMMAE single agent efficacy in PHTX-11c", "format": "in vivo, SCID mice"}, "HT29 (WT / vector) cells": {"test_system": "HT29 (WT / vector) cells", "assay": "Direct cytotoxicity assay (WST), HT29 wild-type / vector cells", "format": "cell-based, human", "description": "To measure each antibody's ability to bind, internalize and kill target expressing cells, cytotoxicity assays were performed. In this assay, cells were incubated with various concentrations of the unconjugated primary anti-GCC antibody and a fixed non-toxic concentration of DM1-conjugated anti-human Fc secondary antibody (indirect cytotoxicity) or with various concentrations of toxin conjugated anti-GCC mAb (direct cytotoxicity). Cell viability was measured by WST assay after 4 days incubation.\nAuristatin (analog of dolastatin 10) and maytansine class toxins were evaluated as ADCs with anti-GCC mAb. These toxins are all inhibitors of microtubule polymerization, acting as anti-mitotics.\nThe 5F9-auristatin toxin conjugates were tested in direct cytotoxicity assays of a variety of cells which been transfected with GCC nucleic acid and selected for expression of GCC. […] As a negative control, antibody drug conjugates were also made with sc209 antibody, which is a human IgG1 monoclonal antibody raised against an unrelated target, with no reactivity to GCC."}, "PHTX-21c s.c. xenograft [7]": {"test_system": "PHTX-21c s.c. xenograft", "assay": "MLN0264 and 5-Fluorouracil in PHTX-21C s.c. xenografts (Study CPGC-11-EF01)", "format": "in vivo, CB-17 SCID mice", "conditions": "for dAUC: reference vehicle", "description": "as §2"}, "[8]": {"conditions": "MLN0264 7.5 mg/kg QW i.v., W1-W3"}, "[9]": {"conditions": "PHTX-21c, ML0264 3.75 mg/kg i.v. QW"}},
  "data": [
    {"substance": "5F9 vcMMAE: 5F9 mAb conjugated to MMAE using a vc (Val-Cit) linker; average drug loading about 3.6", "values": [
      {"measurement": "T/C", "setting": "[1]", "result": 0.03},
      {"measurement": "single agent activity", "setting": "PHTX-09c s.c. xenograft; PHTX-09c (FIGS. 8B and 8C)", "result": "strong"},
      {"measurement": "Days to 1000 mm^3", "setting": "PHTX-09c s.c. xenograft; ML0264 1.875 mg/kg i.v. QW ×3", "result": ">23", "unit": "days"},
      {"measurement": "Mean tumor volume ± S.E.M (mm3)", "setting": "PHTX-09c s.c. xenograft; ML0264 1.875 mg/kg i.v. QW ×3", "result": "888.5 ± 126.2", "unit": "mm3"},
      {"measurement": "T/C", "setting": "PHTX-09c s.c. xenograft; ML0264 1.875 mg/kg i.v. QW ×3", "result": 0.82},
      {"measurement": "TGI", "setting": "PHTX-09c s.c. xenograft; ML0264 1.875 mg/kg i.v. QW ×3", "result": 18.1, "unit": "%"},
      {"measurement": "Days to 1000 mm^3", "setting": "PHTX-09c s.c. xenograft; ML0264 3.75 mg/kg i.v. QW ×3", "result": ">23", "unit": "days"},
      {"measurement": "Mean tumor volume ± S.E.M (mm3)", "setting": "PHTX-09c s.c. xenograft; ML0264 3.75 mg/kg i.v. QW ×3", "result": "861.1 ± 155.9", "unit": "mm3"},
      {"measurement": "T/C", "setting": "PHTX-09c s.c. xenograft; ML0264 3.75 mg/kg i.v. QW ×3", "result": 0.79},
      {"measurement": "TGI", "setting": "PHTX-09c s.c. xenograft; ML0264 3.75 mg/kg i.v. QW ×3", "result": 20.6, "unit": "%"},
      {"measurement": "dAUC", "setting": "PHTX-09c s.c. xenograft; Treated group A (ML0264 1.875 mg/kg) vs reference V (vehicle), percent decrease in AUC", "result": 16.1, "unit": "%"},
      {"measurement": "dAUC", "setting": "PHTX-09c s.c. xenograft; Treated group B (ML0264 3.75 mg/kg) vs reference V (vehicle)", "result": 25.4, "unit": "%"},
      {"measurement": "Days to 1000 mm^3", "setting": "PHTX-11c s.c. xenograft; [8]", "result": 13.5, "unit": "days"},
      {"measurement": "Mean tumor volume ± S.E.M", "setting": "PHTX-11c s.c. xenograft; [8]", "result": "1263.4 ± 115.8", "unit": "mm3"},
      {"measurement": "T/C", "setting": "PHTX-11c s.c. xenograft; [8]", "result": 0.62},
      {"measurement": "TGD", "setting": "PHTX-11c s.c. xenograft; [8]", "result": 4.7, "unit": "days"},
      {"measurement": "TGI", "setting": "PHTX-11c s.c. xenograft; [8]", "result": 37.7, "unit": "%"},
      {"measurement": "single agent anti-tumor activity", "setting": "PHTX-11c s.c. xenograft; PHTX-11c, 7.5 mg/kg", "result": "very low activity"},
      {"measurement": "dAUC", "setting": "PHTX-11c s.c. xenograft; group A: MLN0264 7.5 mg/kg QW, reference vehicle", "result": 22.6, "unit": "%"},
      {"measurement": "dAUC", "setting": "[2]", "result": 26.4, "unit": "%"},
      {"measurement": "single agent sensitivity", "setting": "[3]; 0.9375 mg/kg-10 mg/kg I.V. QW×3 weeks", "result": "Moderate sensitivity"},
      {"measurement": "T/C", "setting": "[3]; dose 0.938-10 mg/kg, QW, T/C=volume of tumor/control", "result": 0.46},
      {"measurement": "single agent anti-tumor activity", "setting": "PHTX-21c s.c. xenograft [4]; PHTX-21c, 3.75 mg/kg", "result": "relatively low anti-tumor activity"},
      {"measurement": "Days to 1000 mm^3", "setting": "PHTX-21c s.c. xenograft [4]; [9]", "result": ">15", "unit": "days"},
      {"measurement": "Mean tumor volume ± S.E.M (mm3)", "setting": "PHTX-21c s.c. xenograft [4]; [9]", "result": "869.1 ± 105.2", "unit": "mm3"},
      {"measurement": "T/C", "setting": "PHTX-21c s.c. xenograft [4]; [9]", "result": 0.64},
      {"measurement": "TGI", "setting": "PHTX-21c s.c. xenograft [4]; [9]", "result": 36.3, "unit": "%"},
      {"measurement": "dAUC", "setting": "PHTX-21c s.c. xenograft [4]; Treated group A (ML0264 3.75 mg/kg) vs reference V (vehicle)", "result": 25.1, "unit": "%"},
      {"measurement": "dAUC (percent decrease in treatment AUC relative to reference group V, vehicle)", "setting": "[5]; group A: MLN0264 3.75 mg/kg IV QW", "result": 36.3, "unit": "%"},
      {"measurement": "dAUC (percent decrease in treatment AUC relative to reference group V, vehicle)", "setting": "[5]; group B: MLN0264 7.5 mg/kg IV QW", "result": 75.1, "unit": "%"},
      {"measurement": "TGI", "setting": "293 GCC#2 tumors; 75 μg/kg iv q7d×4", "result": 54.5},
      {"measurement": "T/C", "setting": "293 GCC#2 tumors; 75 μg/kg iv q7d×4", "result": 0.45},
      {"measurement": "TGD", "setting": "293 GCC#2 tumors; 75 μg/kg iv q7d×4, tumor growth delay", "result": 4.4},
      {"measurement": "TGI", "setting": "293 GCC#2 tumors; 150 μg/kg iv q7d×4", "result": 83.5},
      {"measurement": "T/C", "setting": "293 GCC#2 tumors; 150 μg/kg iv q7d×4", "result": 0.17},
      {"measurement": "TGI", "setting": "293 GCC#2 tumors; 300 μg/kg iv q7d×4", "result": 96.9},
      {"measurement": "T/C", "setting": "293 GCC#2 tumors; 300 μg/kg iv q7d×4", "result": 0.03},
      {"measurement": "single agent sensitivity", "setting": "[6]; 1.875-7.5 mg/kg I.V. QW×3 weeks", "result": "relatively resistant"},
      {"measurement": "T/C", "setting": "[6]; dose 1.875-7.5 mg/kg, on BIW", "result": 0.5, "unit": "on"},
      {"measurement": "LD 50", "setting": "HT29 (WT / vector) cells; HT29, auristatin ADCs", "result": 0.93, "unit": "nM"},
      {"measurement": "LD 50", "setting": "HT29 (WT / vector) cells; HT 29 WT, auristatin ADCs", "result": 84, "unit": "nM"},
      {"measurement": "single agent anti-tumor activity", "setting": "PHTX-21c s.c. xenograft [7]; PHTX-21c, 3.75 mg/kg", "result": "relatively low anti-tumor activity"},
      {"measurement": "dAUC", "setting": "PHTX-21c s.c. xenograft [7]; group C: MLN0264 3.75 mg/kg QW", "result": 38.5, "unit": "%"},
      {"measurement": "dAUC", "setting": "PHTX-21c s.c. xenograft [7]; group D: MLN0264 7.5 mg/kg QW", "result": 74.0, "unit": "%"}
    ]}
  ]
}
